Among the data in US9050346B2, “Bromodomain inhibitors” (AbbVie Inc., priority 2013, dated 2015) are EC50 and Ki values, retold here.

Where only a bound is given, the exact number is not on record here.

The subject of experiment [1] is breast cancer cell line MX-1. The experiment in a line: MX-1 cell line proliferation assay (3-day, Cell Titer Glo). The note with it: Homo sapiens, MX1, MX-1 cells, 72 h, top concentration 3 μM, read-out: Cellular proliferation: EC50. Format: cell-based. The protocol: The impact of compounds of the Examples on cancer cell proliferation was determined using the breast cancer cell line MX-1 (ATCC) in a 3-day proliferation assay and the data are reported in Table 1. MX-1 cells were maintained in RPMI 1640 medium (Sigma) supplemented with 10% FBS at 37 C.° and an atmosphere of 5% CO2. For compound testing, MX-1 cells were plated in 96-well black bottom plates at a density of 5000 cells/well in 90 μL of culture media and incubated at 37° overnight to allow cell adhesion and spreading. Compound dilution series were prepared in DMSO via a 3-fold serial dilution from 3 mM to 0.1 μM. The DMSO dilution series were then diluted 1:100 in phosphate buffered saline, and 10 μL of the resulted solution were added to the appropriate wells of the MX-1 cell plate. The final compound concentrations in the wells were 3, 1, 0.3, 0.1, 0.03, 0.01, 0.003, 0.001, 0.0003 and 0.0001 μM.
Luminescence readings from the Cell Titer Glo assay were normalized to the DMSO treated cells and analyzed using the GraphPad Prism software with sigmoidal curve fitting to obtain EC50s. The minimum significant ratio (MSR) was determined to evaluate assay reproducibility (Eastwood et al., (2006) J Biomol Screen, 11: 253-261).

Experiment [2] has as its target T1, BRD4 (BDII_E352-M457) (Homo sapiens, UniProt O60885).
T1 construct: made in house
The experiment in a line: TR-FRET bromodomain binding assay, BRD4 second bromodomain. In short, it runs like this:
(§1)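 His-tagged BRD4 BD1 (K57-E168) or BD2 (8 nM) with Eu-anti-His antibody and Alexa647-labeled BET-inhibitor probe (100 nM for BDI, 30 nM for BDII), pH 6.0 phosphate buffer, 2% DMSO, 1 h at room temperature. TR-FRET (Ex 340, Em 495/520); IC50 by 4-parameter fit, converted to Ki using probe Kd and concentration.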

Experiment [3] concerns the target T2, BRD4 (BDI_K57-E168) (Homo sapiens, UniProt O60885).
T2 construct: BD1: amino acids K57-E168; made in house
Description: TR-FRET bromodomain binding assay, BRD4 first bromodomain. Particulars: His-tagged BD1, 100 nM Alexa647 probe; Ki calculated from IC50; dilution protocol A-G. In short, it runs like this: as §1

Regarding `Cc1[nH]c(-c2cc(S(C)(=O)=O)ccc2Oc2ccc(F)cc2F)c2cc(C(N)=O)[nH]c(=O)c12` [Example 42, 1-[2-(2,4-difluorophenoxy)-5-(methylsulfonyl)phenyl]-3-methyl-4-oxo-4,5-dihydro-2H-pyrrolo[3,4-c]pyridine-6-carboxamide], in experiment [1], the EC50 was over 3 µM. The Ki in experiment [2] is 0.0569 µM; in experiment [3], 0.0224 µM.

In the case of `COCc1cc2c(-c3ccccc3Oc3ccccc3)[nH]c(C)c2c(=O)[nH]1` [Example 44, 6-(methoxymethyl)-3-methyl-1-(2-phenoxyphenyl)-2,5-dihydro-4H-pyrrolo[3,4-c]pyridin-4-one], in experiment [1], the EC50 was found to be 0.233 µM. Also, the values for the Ki in experiment [2] and in experiment [3] were 0.424 µM and 0.0667 µM, respectively.

Regarding `CCOC(=O)c1cc2c(-c3cc(F)ccc3OC3CCCCC3)[nH]c(C)c2c(=O)[nH]1` [Example 48, ethyl 1-[2-(cyclohexyloxy)-5-fluorophenyl]-3-methyl-4-oxo-4,5-dihydro-2H-pyrrolo[3,4-c]pyridine-6-carboxylate], the EC50 in experiment [1] came to 0.139 µM. Moreover, the Ki was 0.0964 µM in experiment [2] and 0.00505 µM in experiment [3].

Regarding `Cc1[nH]c(-c2ccccc2Oc2ccccc2)c2cc(C(=O)NC3CN(C)C3)[nH]c(=O)c12` [Example 49, 3-methyl-N-(1-methylazetidin-3-yl)-4-oxo-1-(2-phenoxyphenyl)-4,5-dihydro-2H-pyrrolo[3,4-c]pyridine-6-carboxamide], the EC50 in experiment [1] amounted to 0.138 µM. In addition, the Ki in experiment [2] was 0.0702 µM; in experiment [3] it was 0.00343 µM.

Consider `CO[C@H]1C[C@H](NC(=O)c2cc3c(-c4ccccc4Oc4ccccc4)[nH]c(C)c3c(=O)[nH]2)C1` [Example 50, N-(trans-3-methoxycyclobutyl)-3-methyl-4-oxo-1-(2-phenoxyphenyl)-4,5-dihydro-2H-pyrrolo[3,4-c]pyridine-6-carboxamide], for which, in experiment [1], the EC50 was determined as 0.21 µM. The Ki in experiment [2] is 0.0113 µM; in experiment [3] it was 0.0301 µM.

On to `Cc1[nH]c(-c2ccccc2Oc2ccccc2)c2cc(C(=O)N[C@@H]3CCN(C)C3)[nH]c(=O)c12` [Example 51, (R)-3-methyl-N-(1-methylpyrrolidin-3-yl)-4-oxo-1-(2-phenoxyphenyl)-4,5-dihydro-2H-pyrrolo[3,4-c]pyridine-6-carboxamide], for which, in experiment [1], the EC50 amounted to 0.117 µM. Also, the Ki is 0.19 µM in experiment [2] and 0.00613 µM in experiment [3].

With `Cc1[nH]c(-c2ccccc2Oc2ccccc2)c2cc(C(=O)NC(C)(C)C#N)[nH]c(=O)c12` [Example 52, N-(2-cyanopropan-2-yl)-3-methyl-4-oxo-1-(2-phenoxyphenyl)-4,5-dihydro-2H-pyrrolo[3,4-c]pyridine-6-carboxamide], the EC50 in experiment [1] came out at 0.763 µM. Also, the Ki in experiment [2] is 0.0975 µM; in experiment [3], 0.0369 µM.

As for `Cc1[nH]c(-c2ccccc2Oc2ccccc2)c2cc(C(=O)NN(C)C)[nH]c(=O)c12` [Example 53, N′,N′,3-trimethyl-4-oxo-1-(2-phenoxyphenyl)-4,5-dihydro-2H-pyrrolo[3,4-c]pyridine-6-carbohydrazide], the EC50 in experiment [1] was determined as 0.162 µM. Besides, the Ki was 0.0721 µM in experiment [2] and 0.00825 µM in experiment [3].

On to `Cc1[nH]c(-c2ccccc2Oc2ccccc2)c2cc(C(=O)NC3CCNCC3)[nH]c(=O)c12` [Example 57, 3-methyl-4-oxo-1-(2-phenoxyphenyl)-N-(piperidin-4-yl)-4,5-dihydro-2H-pyrrolo[3,4-c]pyridine-6-carboxamide], for which, in experiment [1], the EC50 worked out at 0.252 µM. Besides, the Ki was 0.0158 µM in experiment [2] and 0.00178 µM in experiment [3].

In the case of `Cc1[nH]c(-c2ccccc2Oc2ccccc2)c2cc(C(=O)NC[C@H]3CCNC3)[nH]c(=O)c12` [Example 58, (S)-3-methyl-4-oxo-1-(2-phenoxyphenyl)-N-(pyrrolidin-3-ylmethyl)-4,5-dihydro-2H-pyrrolo[3,4-c]pyridine-6-carboxamide], the EC50 in experiment [1] is 0.329 µM. Further, the Ki in experiment [2] is 0.016 µM; in experiment [3], 0.00202 µM.

Regarding `Cc1[nH]c(-c2ccccc2Oc2ccccc2)c2cc(C(=O)NCC3CNCC3(F)F)[nH]c(=O)c12` (stereo not drawn) [Example 59, N-[(4,4-difluoropyrrolidin-3-yl)methyl]-3-methyl-4-oxo-1-(2-phenoxyphenyl)-4,5-dihydro-2H-pyrrolo[3,4-c]pyridine-6-carboxamide], the EC50 in experiment [1] stood at 0.223 µM. The Ki is 0.0597 µM in experiment [2] and 0.00367 µM in experiment [3].

`Cc1[nH]c(-c2ccccc2Oc2ccccc2)c2cc(-c3nc(-c4cccnc4)no3)[nH]c(=O)c12` [Example 60, 3-methyl-1-(2-phenoxyphenyl)-6-(3-(pyridin-3-yl)-1,2,4-oxadiazol-5-yl)-2H-pyrrolo[3,4-c]pyridin-4(5H)-one]: the EC50 in experiment [1] stood at 0.111 µM. Further, the Ki in experiment [2] was 0.116 µM; in experiment [3], 0.013 µM.

Turning to `Cc1noc(-c2cc3c(-c4ccccc4Oc4ccccc4)[nH]c(C)c3c(=O)[nH]2)n1` [Example 61, 3-methyl-6-(3-methyl-1,2,4-oxadiazol-5-yl)-1-(2-phenoxyphenyl)-2H-pyrrolo[3,4-c]pyridin-4(5H)-one], the EC50 in experiment [1] came to 0.159 µM. Moreover, the values for the Ki in experiment [2] and in experiment [3] were 0.138 µM and 0.01 µM, respectively.

Consider `Cc1[nH]c(-c2ccccc2Oc2ccccc2)c2cc(-c3nc(C4CC4)no3)[nH]c(=O)c12` [Example 63, 6-(3-cyclopropyl-1,2,4-oxadiazol-5-yl)-3-methyl-1-(2-phenoxyphenyl)-2H-pyrrolo[3,4-c]pyridin-4(5H)-one], for which, in experiment [1], the EC50 was determined as 0.139 µM. Besides, the figures for the Ki in experiment [2] and in experiment [3] were 0.257 µM and 0.0435 µM, respectively.

`Cc1[nH]c(-c2ccccc2Oc2ccccc2)c2cc(-c3nc(Cn4cncn4)no3)[nH]c(=O)c12` [Example 64, 6-(3-((1H-1,2,4-triazol-1-yl)methyl)-1,2,4-oxadiazol-5-yl)-3-methyl-1-(2-phenoxyphenyl)-2H-pyrrolo[3,4-c]pyridin-4(5H)-one]: the EC50 in experiment [1] worked out at 0.0292 µM. The Ki in experiment [2] was 0.00711 µM; in experiment [3] it was 0.00228 µM.

For the compound `Cc1[nH]c(-c2ccccc2Oc2ccccc2)c2cc(-c3nc(-c4cnccn4)no3)[nH]c(=O)c12` [Example 65, 3-methyl-1-(2-phenoxyphenyl)-6-(3-(pyrazin-2-yl)-1,2,4-oxadiazol-5-yl)-2H-pyrrolo[3,4-c]pyridin-4(5H)-one], the EC50 in experiment [1] amounted to 0.0711 µM. For the same compound, the results for the Ki in experiment [2] and in experiment [3] were 0.0285 µM and 0.00757 µM, respectively.

`Cc1[nH]c(-c2ccccc2Oc2ccccc2)c2cc(-c3nc(Cc4cccnc4)no3)[nH]c(=O)c12` [Example 66, 3-methyl-1-(2-phenoxyphenyl)-6-(3-(pyridin-3-ylmethyl)-1,2,4-oxadiazol-5-yl)-2H-pyrrolo[3,4-c]pyridin-4(5H)-one]: the EC50 in experiment [1] is 0.081 µM. Besides, the figures for the Ki in experiment [2] and in experiment [3] were 0.151 µM and 0.00931 µM, respectively.

In the case of `Cc1[nH]c(-c2ccccc2Oc2ccccc2)c2cc(-c3nc(-c4ccccn4)no3)[nH]c(=O)c12` [Example 67, 3-methyl-1-(2-phenoxyphenyl)-6-(3-(pyridin-2-yl)-1,2,4-oxadiazol-5-yl)-2H-pyrrolo[3,4-c]pyridin-4(5H)-one], the EC50 in experiment [1] came to 0.0805 µM. For the same compound, the values for the Ki in experiment [2] and in experiment [3] were 0.078 µM and 0.00945 µM, respectively.

Turning to `CCOC(=O)c1cc2c(-c3cc(CS(C)(=O)=O)ccc3Oc3ccc(F)cc3F)[nH]c(C)c2c(=O)[nH]1` [Example 68, ethyl 1-{2-(2,4-difluorophenoxy)-5-[(methylsulfonyl)methyl]phenyl}-3-methyl-4-oxo-4,5-dihydro-2H-pyrrolo[3,4-c]pyridine-6-carboxylate], in experiment [1], the EC50 was 0.03 µM. In addition, the figures for the Ki in experiment [2] and in experiment [3] were 0.0088 µM and 0.00212 µM, respectively.

Consider `CCOC(=O)c1cc2c(-c3cc(F)ccc3OCC3CC3)[nH]c(C)c2c(=O)[nH]1` [Example 69, ethyl 1-[2-(cyclopropylmethoxy)-5-fluorophenyl]-3-methyl-4-oxo-4,5-dihydro-2H-pyrrolo[3,4-c]pyridine-6-carboxylate], for which the EC50 in experiment [1] is over 3 µM. Moreover, the Ki in experiment [2] was 0.416 µM; in experiment [3], 0.0522 µM.

Turning to `Cc1[nH]c(-c2cc(F)ccc2OCC2CC2)c2cc(C(N)=O)[nH]c(=O)c12` [Example 70, 1-[2-(cyclopropylmethoxy)-5-fluorophenyl]-3-methyl-4-oxo-4,5-dihydro-2H-pyrrolo[3,4-c]pyridine-6-carboxamide], the EC50 in experiment [1] was over 3 µM. The values for the Ki in experiment [2] and in experiment [3] were 0.356 µM and 0.0827 µM, respectively.

In the case of `Cc1[nH]c(-c2cc(F)ccc2OCC2CC2)c2cc(-c3nc(-c4cnccn4)no3)[nH]c(=O)c12` [Example 71, 1-(2-(cyclopropylmethoxy)-5-fluorophenyl)-3-methyl-6-(3-(pyrazin-2-yl)-1,2,4-oxadiazol-5-yl)-2H-pyrrolo[3,4-c]pyridin-4(5H)-one], in experiment [1], the EC50 is 0.204 µM. Further, the Ki was 0.659 µM in experiment [2] and 0.0385 µM in experiment [3].
